Values of other authors as cited in patent publication US20230399335A1, “PROCESS FOR THE PREPARATION OF ASENAPINE IN THE FORM OF ITS FREE BASE” (LTS LOHMANN Therapie-Systeme AG, priority 2020, published 2023).

Settings: when taken orally

**Q.** With CN1C[C@H]2c3ccccc3Oc3ccc(Cl)cc3[C@@H]2C1 (relative stereo) [asenapine, (3aRS,12bRS)-rel-5-chloro-2,3,3a,12b-tetrahydro-2-methyl-1H-dibenz[2,3:6,7]oxepin [4,5-c]pyrrole] as the molecule, how does the bioavailability read?
**A.** The bioavailability was < 2%.
